# Measurements: patent US20230079439A1, “Compositions and Methods for Enhancing Beta Cell Maturation, Health and Function” (THE REGENTS OF THE UNIVERSITY OF CALIFORNIA, priority 2016, published 2023)
# Ends that are not written are not given here.
# Columns and labels:
# INS-1E cells [1] = assay: MTT cell viability under glucose oxidase-induced oxidative stress; type: cell-based, rat
# Description: FIG. 7, comprising FIG. 7A through FIG. 7G, depicts the evaluation of the biological activity of HSA-28P in INS-1E cells. FIG. 7A depicts dose-response analysis of the effect of HSA-28P on the rate of insulin secretion in INS-1E cells. The INS-1E cells were grown and trypsinized as described in Methods. Subsequently, cells were mixed with the indicated concentrations of HSA-28P (red columns), non-relevant peptide nanoparticles (NRPNP, green columns), and naked nanoparticles (NP, blue columns) and were seeded in 12-well plates. After 24 h the cells were taken to a GSIS in the presence of 2.5 mM (weak color bars) or 16.7 mM (strong color bars) glucose. FIG. 7B depicts time-course analysis of the effect of HSA-28P on the rate of insulin secretion in INS-1E cells. The INS-1E cells were prepared for the experiment as described above with 1.34 μM of both HSA-28P or NRPNP, and 0.76 μg/ml of NP. […] INS-1E cells were treated as described in Panel D. Cells were detached by trypsin and counted as described in Methods and then were visualized with a Cells Sense Live Imaging microscope. […]
# Briefly, cells were incubated with MTT (2 mg/mL) in growth medium for 30 min at 37° C. […] Absorbance at 570 nm was measured in a SpectraMax M5 spectrophotometer (Sunnyvale, Calif., USA). The obtained results were normalized by total protein content in culture cells, which was measured using the Bradford reagent. […]
# INS-1E cells [2] = assay: Insulin secretion of INS-1E cells after 5 h incubation with peptidomimetic agent; type: cell-based, rat
# Description: FIG. 22, comprising FIG. 22A through FIG. 22C, depicts experimental results of incubation of INS1E cells with peptidomimetic agent. A peptidomimetic agent was designed to mimic neuroligin's binding site for neurexin. Monomers and dimers had no effect on insulin secretion. Multiple dimers were conjugated to PEG-2000 to simulate clustering (reagent HSA-112). Dimers were also clustered on nanoparticles (HSA-637). FIG. 22A depicts INS-1E cells were incubated for 5 h with HSA-112 (blue columns) or HSA-637 (purple) at different concentrations or with vehicle alone (black), washed, and then tested for insulin secretion at 3 mM glucose (striped columns) or at 20 mM glucose (solid columns). […] FIG. 22B depicts a time course: insulin secretion was analyzed after the number of hours indicated following a 5 h incubation with 100 μM HSA-112 (blue), 500 nM HSA-637 (purple) or vehicle alone (black). Incubations were with 3 mM glucose (striped columns) or 20 mM glucose (solid columns). FIG. 22C depicts microscopy where INS-1E cells were incubated with HSA-637 conjugated to a fluorescent dye (Cy5, red) and then washed. Membranes were stained with Alexa Fluor 488 (green). For better visualization, microscopy was in hypotonic saline causing the INS-1E cells to swell and become more rounded.
substance,measurement,setting,value
"HSA-112: HSA-28 dimer formed by bridging two HSA-28 monomers via amide bond formation with active ester PEG2,000 (QQGEFLNYD-NH2; not fully specified (N-terminus); also: dimer of two HSA-28 monomers bridged via amide bonds with active ester PEG2000)",cell protective effect compared with trolox,INS-1E cells [1]; glucose oxidase-induced oxidative stress,almost identical to that of the well-known antioxidant (trolox)
same,effect on cell viability under oxidative stress,"INS-1E cells [1]; glucose oxidase/glucose system, 24 h",cytoprotective effect
same,concentration that significantly increased glucose-stimulated insulin secretion,"INS-1E cells [2]; 5 h incubation, 20 mM glucose, p<0.05",≥ 20 µM
same,effect on insulin secretion,INS-1E cells [2]; INS-1 β cells,increased insulin secretion in a dose-dependent manner
